Data set [1] in a line: In vivo pharmacokinetics in mice.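 As to all read-outs here: plasma and lung samples quantified by LC-MS/MS, dosing as a suspension in aqueous carboxymethylcellulose with Tween 80.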 The conditions noted are these: CD-1 mice, oral, 40 mg/kg; for Cmax / half-life / Kp: mouse; for Cmax / half-life: in vivo, plasma; for half-life: read-out: t½ (h) plasma (converted); for Kp: lung/plasma, read-out: AUC ratio (lung/plasma).
The nature of data set [2]: Water solubility (sonicated suspension, HPLC).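 As to all read-outs here: concentration in the clear supernatant quantified by HPLC peak area against a DMSO standard solution of the same compound, corrected for dilution and injection volume.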 It is filed as physicochemical. The conditions noted are these: in water; for solubility at 15 min: thermodynamic from solid.
Data set [3] in a line: Stability to human liver microsomes.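 Also: parent compound quantified by LC-MS/MS against an internal standard, duplicates averaged, expressed relative to the 0 min sample taken as 100%.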 It counts as in vitro ADME. The conditions noted are these: 1 μM, 37° C., 60 min, pooled human liver microsomes.

≈ marks a conversion by molar mass, not a printed value.

`O=[N+]([O-])c1cn2c(n1)OC[C@@H](OCc1ccc(-c3ccc(OC(F)(F)F)cc3)cn1)C2` [Compound 7, (6S)-2-Nitro-6-({5-[4-(trifluoromethoxy)phenyl]-2-pyridinyl}methoxy)-6,7-dihydro-5H-imidazo[2,1-b][1,3]oxazine] displayed a melting point of 157 to 159 °C. For the same compound, in data set [1], the AUC lung was 427 µg·h/mL and the concentration peaked (Cmax) at 25900 ng/mL.

As to `O=[N+]([O-])c1cn2c(n1)OC[C@@H](OCc1ccc(-c3ccc(OC(F)(F)F)cc3)c(F)c1)C2` [Compound 15, (6S)-6-{[2-Fluoro-4′-(trifluoromethoxy)[1,1′-biphenyl]-4-yl]methoxy}-2-nitro-6,7-dihydro-5H-imidazo[2,1-b][1,3]oxazine], the melting point lay within 181 to 183 °C. The compound also yielded a solubility at 15 min in data set [2] of 0.33 µg/mL (≈ 0.728 µM).

Consider `O=[N+]([O-])c1cn2c(n1)OC[C@@H](OCc1ccc(C#Cc3ccc(OC(F)(F)F)cc3)nc1)C2` [Compound 33, (6S)-2-Nitro-6-[(6-{[4-(trifluoromethoxy)phenyl]ethynyl}-3-pyridinyl)methoxy]-6,7-dihydro-5H-imidazo[2,1-b][1,3]oxazine], for which the melting point fell in the range of 235 to 238 °C.

The compound `O=[N+]([O-])c1cn2c(n1)OC[C@@H](OCc1ccc(C#Cc3ccc(OC(F)(F)F)cc3)cc1)C2` [Compound 32, (6S)-2-Nitro-6-[(4-{[4-(trifluoromethoxy)phenyl]ethynyl}benzyl)oxy]-6,7-dihydro-5H-imidazo[2,1-b][1,3]oxazine] displayed a melting point of 233 to 236 °C.

`O=[N+]([O-])c1cn2c(n1)OC[C@@H](OCc1ccc(C#Cc3ccc(OC(F)(F)F)cc3)cn1)C2` [Compound 18, (6S)-2-Nitro-6-[(5-{[4-(trifluoromethoxy)phenyl]ethynyl}-2-pyridinyl)methoxy]-6,7-dihydro-5H-imidazo[2,1-b][1,3]oxazine]: the melting point lay within 207 to 208 °C. In data set [2], the solubility at 15 min was 0.36 µg/mL (≈ 0.782 µM). Moreover, in data set [1], the AUC lung was 235 µg·h/mL, the concentration peaked (Cmax) at 2360 ng/mL, the half-life is 23.5 h and the Kp came out at 2.5.

The compound `O=[N+]([O-])c1cn2c(n1)OC[C@@H](OCc1ccc(-c3ccc(C(F)(F)F)nc3)cc1)C2` [Compound 9, (6S)-2-Nitro-6-({4-[6-(trifluoromethyl)-3-pyridinyl]benzyl}oxy)-6,7-dihydro-5H-imidazo[2,1-b][1,3]oxazine] gave a melting point of 221 to 222 °C. The Solubility in data set [2] amounted to 1.0 µg/mL (≈ 2.38 µM). In data set [3], the “Microsomes (% remaining, 1 h) Human” value was 86%. In data set [1], the AUC lung came out at 414 µg·h/mL, the highest concentration (Cmax) turned out to be 13500 ng/mL and the Kp amounted to 1.9.

In turn, `O=[N+]([O-])c1cn2c(n1)OC[C@@H](OCc1ccc(-c3ccc(OC(F)(F)F)cc3)cc1)C2` [Compound 3, (6S)-2-Nitro-6-{[4′-(trifluoromethoxy)[1,1′-biphenyl]-4-yl]methoxy}-6,7-dihydro-5H-imidazo[2,1-b][1,3]oxazine] had a melting point of 199 to 201 °C. The compound also returned an AUC lung in data set [1] of 218 µg·h/mL.

On to `O=[N+]([O-])c1cn2c(n1)OC[C@@H](OCc1ccc(-c3ccc(F)cc3)nc1)C2` (hydrate or solvate) [Compound 5, (6S)-6-{[6-(4-Fluorophenyl)-3-pyridinyl]methoxy}-2-nitro-6,7-dihydro-5H-imidazo[2,1-b][1,3]oxazine], for which the melting point lay in the range of 194 to 196 °C.

The compound `O=[N+]([O-])c1cn2c(n1)OC[C@@H](Oc1ccc(-c3ccc(OC(F)(F)F)cc3)cc1)C2` [Compound 13, (6S)-2-Nitro-6-{[4′-(trifluoromethoxy)[1,1′-biphenyl]-4-yl]oxy}-6,7-dihydro-5H-imidazo[2,1-b][1,3]oxazine] displayed a melting point of 210 °C. The same compound registered a solubility at 15 min in data set [2] of 3 µg/mL (≈ 7.12 µM). Further, in data set [1], the AUC lung was 347 µg·h/mL, the half-life was 38 h and the Kp was 3.4.

Source of the values: US9198913B2, “Nitroimidazooxazines and their uses in anti-tubercular therapy” (priority 2009, dated 2015).
